The results in this text go back to patent US4468383A, “Dimeric enkephalins” (The United States of America as represented by the …, priority 1982, dated 1984).

In the assay the test system is NG108-15 cells (a neuroblastoma-glioma hybrid cell line). Description: In vitro bioassay in NG108-15 cells stimulated by prostaglandin E1. It is filed as cell-based. To be noted: read-out: IC50 in NG108-15 cells stimulated by PGE1.

Molecules are shown by their SMILES.

On to `CC(C)C[C@H](NC(=O)[C@H](Cc1ccccc1)NC(=O)CNC(=O)[C@@H](C)NC(=O)[C@@H](N)Cc1ccc(O)cc1)C(=O)NCCNC(=O)[C@H](CC(C)C)NC(=O)[C@H](Cc1ccccc1)NC(=O)CNC(=O)[C@@H](C)NC(=O)[C@@H](N)Cc1ccc(O)cc1` [DPE2], for which the IC50 (as a rule, the midpoint of a concentration-inhibition curve) is about 0.15 nM.
